From article PMC10349806 (Nature Communications, 2023)
Several values for one entry are separate records, joined by “and”; a condition that tells them apart may be missing. Identical values can stand only once.

How the values were obtained:
PfCRT variant H97A = target: T1, PfCRT variant H97A (Plasmodium falciparum, UniProt Q9N623, A220S/H97A/I356T/K76T/M74I/N326S/N75E/Q271E/R371I); experiment: CQ uptake assay, oocytes expressing H97A; format: cell-based
T1 sequence (Q9N623 1-424 M74I/N75E/K76T/H97A/A220S/Q271E/N326S/I356T/R371I): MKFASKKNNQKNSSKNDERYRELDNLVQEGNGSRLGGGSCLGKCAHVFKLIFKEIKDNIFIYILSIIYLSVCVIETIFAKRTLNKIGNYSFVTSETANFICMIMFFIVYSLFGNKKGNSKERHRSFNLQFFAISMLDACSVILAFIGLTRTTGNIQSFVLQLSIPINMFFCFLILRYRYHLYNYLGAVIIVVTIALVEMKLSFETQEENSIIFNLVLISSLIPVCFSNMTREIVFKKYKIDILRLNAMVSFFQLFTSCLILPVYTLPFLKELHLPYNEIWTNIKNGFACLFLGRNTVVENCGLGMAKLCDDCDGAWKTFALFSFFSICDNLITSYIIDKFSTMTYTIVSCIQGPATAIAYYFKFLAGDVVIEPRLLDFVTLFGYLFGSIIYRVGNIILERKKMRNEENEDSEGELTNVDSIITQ
Procedure: (§1) Site-directed mutagenesis of PfCRT^Dd2 was performed as described using the megaprimer method with overlap extension[21],[54]. The primer pairs used are listed in Supplementary Table 6. Please note that a codon-optimized and oocyte-adapted version of PfCRT^Dd2 was used[22] (Supplementary Fig. 16). The resulting DNA fragment was cloned into the SP64T expression vector and verified by sequencing.
(§2) Oocytes were obtained as described previously. Briefly, adult (>2 years old) female X. laevis frogs (NASCO) were anesthetized in a cooled solution of ethyl 3-amino benzoate methanesulfonate (0.1%, w/v), followed by a surgical removal of parts of the ovary. The ovary lobes were carefully dissected and small pieces of oocytes were incubated in Ca^2+-free ND96 buffer (96 mM NaCl, 2 mM KCl, 1 mM MgCl2 buffered with 5 mM HEPES/NaOH, pH 7.5) supplemented with collagenase D (0.1%, w/v; Roche), BSA (0.5%, w/v), and 9 mm Na2HPO4 at 18 °C for 14-16 h while gentle shaking. After incubation, the oocytes were carefully washed several times with ND96 buffer (96 mM NaCl, 2 mM KCl, 1.8 mM CaCl2, 1 mM MgCl2 buffered with 5 mM HEPES/NaOH, pH 7.5) supplemented with 100 mg l^−1 gentamycin). Defolliculated and healthy-looking stage V-VI oocytes were manually selected for RNA microinjection. The RNA was generated as following: The codon-optimized sequences of PfCRT variants were cloned into the pSP64T expression vector. After vector linearization using the restriction endonucleases BamHI or SalI (New England Biolabs), transcription was performed using the in vitro SP6 mMessage mMachine Kit (Ambion)[34]. The obtained RNA was kept at −80 °C and diluted with nuclease-free water to a concentration of 0.6 μg μl^−1. Precision-bore glass capillary tubes (3.5-inch glass capillaries; Drummond Scientific Co.) were pulled on a vertical puller (P-87 Flaming/Brown micropipette puller, Sutter Instrument Co.), graduated, and placed on a microinjector (Nanoject II Auto-Nanoliter Injector, Drummond Scientific Co.). 50 nl of nuclease-free water alone (control oocytes) or 50 nl of 0.6 μg μl^−1 RNA were injected under stereomicroscopic control. Injected oocytes were incubated for 46–72 h at 18 °C with twice-daily buffer changes before usage in experiments.
Drug uptake assays were performed as described previously[21],[22],[24],[34]. […] Oocytes that were injected with water instead of RNA were analyzed in parallel, representing the uptake of a drug by diffusion and/or endogenous permeation pathways. […] The specific PfCRT-mediated uptake was determined by subtracting the corresponding background value measured in water-injected oocytes from that of PfCRT-expressing oocytes. […]

PfCRT variant E207F = experiment: CQ uptake assay, oocytes expressing E207F; format: cell-based, Plasmodium falciparum
Procedure: as §1, §2
Drug uptake assays were performed as described previously[21],[22],[24],[34]. […] The direction of radio-labeled drug transport is here from the mostly acidic extracellular solution (pH 4.5 or 6.0, as indicated) into the oocyte cytosol (pH ∼ 7.2), which corresponds to the efflux of drug from the acidic digestive vacuole (pH 5.2) into the parasite cytoplasm (pH 7.2). The topology of PfCRT in the oolemma is such that both the N- and C-terminus face the extracellular milieu[3],[22]. In the parasite, the N- and C-terminus face the lumen of the digestive vacuole. CQ uptake kinetics were performed by incubating oocytes in ND96 buffer adjusted to a pH of 4.5, 5.0, 5.5, or 6.0 and supplemented with 50 nM [^3H]CQ and one of 7 different CQ concentrations (10 µM, 50 µM, 100 µM, 200 µM, 300 µM, 400 µM, 500 µM CQ). The reaction was stopped at the 60 min time point, which is in the linear uptake range[22],[34] (Supplementary Fig. 17). For determination of the amount of drug uptake for each oocyte, the reaction medium was removed and the oocytes were washed three times with 2 ml of ice-cold ND96 buffer. Each oocyte was individually transferred to a scintillation vial containing 5% sodium dodecyl sulfate (200 μl) for lysis. The radioactivity of each sample was measured using a liquid scintillation analyzer Tri-Carb 4910 TR (PerkinElmer). Oocytes that were injected with water instead of RNA were analyzed in parallel, representing the uptake of a drug by diffusion and/or endogenous permeation pathways. The resulting value represents the “background“ level of drug accumulation in oocytes (in-depth discussion in[22]). […]

[1] = E207F, 50 µM CQ, 1 h, mean ± SEM

Compound: CCN(CC)CCCC(C)Nc1ccnc2cc(Cl)ccc12 (stereo not shown) [CQ, chloroquine]
- Activity at pH 6.0 (PfCRT variant H97A; H97A, 50 µM CQ, 1 h, mean ± SEM): 6.57 ± 0.71 pmol h-1 oocyte-1
- R-value (PfCRT variant H97A; H97A, CQ transport at pH 4.5 / pH 6.0): 0.40 and 0.40 ± 0.04
- H97A transport activity pH 4.5 (PfCRT variant H97A; pH 4.5, single replicates, Fig 1d left): 3.71 pmol oocyte-1 h-1 and 4.69 pmol oocyte-1 h-1 and 2.51 pmol oocyte-1 h-1 and 3.21 pmol oocyte-1 h-1 and 2.32 pmol oocyte-1 h-1 and 1.49 pmol oocyte-1 h-1 and 2.15 pmol oocyte-1 h-1 and 1.58 pmol oocyte-1 h-1
- H97A transport activity pH 6.0 (PfCRT variant H97A; pH 6.0, single replicates, Fig 1d left): 9.31 pmol oocyte-1 h-1 and 6.25 pmol oocyte-1 h-1 and 4.00 pmol oocyte-1 h-1 and 9.52 pmol oocyte-1 h-1 and 5.42 pmol oocyte-1 h-1 and 3.89 pmol oocyte-1 h-1 and 6.61 pmol oocyte-1 h-1 and 7.56 pmol oocyte-1 h-1
- Activity at pH 4.5 (PfCRT variant E207F; [1]): 2.67 ± 0.27 pmol h-1 oocyte-1
- Activity at pH 6.0 (PfCRT variant E207F; [1]): 3.27 ± 0.42 pmol h-1 oocyte-1
- R-value (PfCRT variant E207F; E207F, CQ transport at pH 4.5 / pH 6.0): 0.84 ± 0.09
- E207F transport activity pH 4.5 (PfCRT variant E207F; pH 4.5, individual replicates, Fig 6b): 3.33 pmol oocyte-1 h-1 and 3.06 pmol oocyte-1 h-1 and 2.01 pmol oocyte-1 h-1 and 2.27 pmol oocyte-1 h-1
- E207F transport activity pH 6.0 (PfCRT variant E207F; pH 6.0, individual replicates, Fig 6b): 2.89 pmol oocyte-1 h-1 and 4.68 pmol oocyte-1 h-1 and 2.46 pmol oocyte-1 h-1 and 3.03 pmol oocyte-1 h-1
- E207F R-value (PfCRT variant E207F; ratio of activity pH 4.5 / pH 6.0): 1.15 and 0.65 and 0.82 and 0.75
